Values of other authors, collected in patent US10064865B2, “Composition comprising phosphodiesterase type 5 inhibitor for inhibiting apoptosis of nerve cells” (ARIBIO INC., priority 2012, dated 2018).

Test system: B-chronic lymphocytic leukemia cells
Conditions: Marika Sarfati et al., BLOOD 2003; cited from earlier work

Structure (SMILES): CCCc1nn(C)c2c(=O)[nH]c(-c3cc(S(=O)(=O)N4CCN(C)CC4)ccc3OCC)nc12 [sildenafil]
- apoptosis of B-chronic lymphocytic leukemia cells: induce caspase-dependent apoptosis
